From patent US20230278974A1, “ANTITUMORAL ASCORBIC ACID ESTERS” (SUIGENERIS FARMACOSMETICS, S.L., priority 2020, published 2023)

System: primary or metastatic human cancer cells from various origins (IGR39, IGR37, MW115, MW266.4, DLD1, SW480, HCT116, NUG-C4, COLO668, BXPC3, CAPAN2, RWP1)
Assay: Growth inhibition of human cancer cell lines (crystal violet staining, 96 well plates)
Type: cell-based
Settings: even at concentrations as low as 0.2 mM; 72 h treatment
Description: The BXPC3, CAPAN2, RWP1 cell lines from human pancreatic cancer were provided by the Biomedical Research Institute (IRB) Barcelona; the MW115 and IGR39 cell lines from human primary melanoma and MW 266.4 and IGR37 from human metastatic melanoma were provided by Dr. Manel Esteller from the Catalan Institute of Oncology (ICO) Barcelona (Vizoso M. et al., “Epigenetic activation of a cryptic TBC1D16 transcript enhances melanoma progression by targeting EGFR” Nat Med., 2015, vol 21(7), pp. 741-50); DLDL1, SW480 and HCT116 cell lines from human colon cancer were provided by Dra. Neus Agell from the Research Institute August Pi Sunyer (IDIBAPS) - University of Barcelona (UB); NUG-C4 and COLO668 cell lines from human gastric and lung cancers, respectively, were provided by the Center for Genomic Regulation (CRG) Barcelona. […]
The cells were resuspended by trypsin/EDTA digestion with 0.5% Trypsin-EDTA in the case of different human cancer cell lines, and 0.25% Trypsin-EDTA in the case of human primary endothelial cells. Once resuspended in culture medium, they were counted in Newbauer chamber after a 1:1 dilution with trypan blue. […]
The optical density values per well were obtained by a Biotek Synergy™2 multi-detection microplate reader, using a 590 nm filter and by scanning reading, obtaining the mean values per well.

## CCCCCCC1CCC(CCC(=O)OC[C@H](O)[C@H]2OC(=O)C(O)=C2O)CC1 (stereo partly drawn) [Compound Ib, (S)-2-((R)-3,4-Dihydroxy-5-Oxo-2,5-Dihydrofuran-2-Yl)-2-Hydroxyethyl 3-(4-Hexylcyclohexyl)Propanoate]
  inhibitory capacity on growth of cancer cells: remarkable inhibitory capacity
